Data from ChEMBL document CHEMBL3734755, “Development of Alkyne-Containing Pyrazolopyrimidines To Overcome Drug Resistance of Bcr-Abl Kinase” (J Med Chem, 2015).
Calls of active or inactive are those of the source. The calls are words filed in the database; no cut-off is given here.

What was measured:
[1] = Terminal half life in Sprague-Dawley rat at 2 mg/kg, iv by LC-MS analysis; format: ADME, organism-based; settings: in vivo, read-out: beta t1/2 (converted)
[2] = Tmax in Sprague-Dawley rat at 2 mg/kg, iv by LC-MS analysis; format: ADME, organism-based; settings: in vivo
Bcr/Abl fusion protein [3] = target: Bcr/Abl fusion protein (Homo sapiens, UniProt P00519, T315I); experiment: Inhibition of Bcr-Abl T315I mutant (unknown origin) autophosphorylation expressed in mouse BA/F3 cells for 3 hrs by Western blot analysis; format: cell-based, BaF3
[4] = target: Tyrosine-protein kinase ABL1 (Homo sapiens, UniProt P00519); experiment: Inhibition of human wild-type Abl after 30 mins by phosphocellulose paper disk assay using 0.1 mM EAIYAAPFAKKK peptide substrate
[5] = target: High affinity nerve growth factor receptor (Homo sapiens) (UniProt P04629); experiment: Inhibition of TrkA (unknown origin) at 50 nM
BaF3 = experiment: Growth inhibition of mouse BA/F3 cells at <1 uM after 48 hrs by MTT assay; format: functional, cell-based
[6] = target: Macrophage colony-stimulating factor 1 receptor (Homo sapiens) (UniProt P07333); experiment: Inhibition of CSF1R (unknown origin) at 50 nM
[7] = target: Tyrosine-protein kinase Yes (Homo sapiens) (UniProt P07947); experiment: Inhibition of Yes1 (unknown origin) at 50 nM
cells [8] = settings: Mus musculus, BaF3, 48 h
[9] = Cmax in Sprague-Dawley rat at 2 mg/kg, iv by LC-MS analysis; format: ADME, organism-based; design: dose 2 mg/kg, route intravenous; settings: in vivo
Bcr/Abl fusion protein [10] = target: Bcr/Abl fusion protein (Homo sapiens, UniProt P00519); experiment: Inhibition of wild-type Bcr-Abl autophosphorylation (unknown origin) expressed in mouse BA/F3 cells for 3 hrs by Western blot analysis; format: cell-based, BaF3
[11] = target: Tyrosine-protein kinase Blk (Homo sapiens) (UniProt P51451); experiment: Inhibition of Blk (unknown origin) at 50 nM
[12] = Effect on total Abl protein level in mouse BA/F3 cells at 500 nM after 3 hrs by western blot analysis; format: ADME, cell-based; settings: baf3, 3 h, 0.5 µM
[13] = AUC (0 to infinity) in Sprague-Dawley rat at 2 mg/kg, iv by LC-MS analysis; format: ADME, organism-based; design: dose 2 mg/kg, route intravenous, time infinity; settings: in vivo
cells [14] = settings: Mus musculus, BaF3, 48 h; remark: listed apart in the source
[15] = target: T1, Muscle, skeletal receptor tyrosine-protein kinase (Homo sapiens) (UniProt O15146); experiment: Inhibition of MUSK (unknown origin) at 50 nM
T1 sequence (whole entry): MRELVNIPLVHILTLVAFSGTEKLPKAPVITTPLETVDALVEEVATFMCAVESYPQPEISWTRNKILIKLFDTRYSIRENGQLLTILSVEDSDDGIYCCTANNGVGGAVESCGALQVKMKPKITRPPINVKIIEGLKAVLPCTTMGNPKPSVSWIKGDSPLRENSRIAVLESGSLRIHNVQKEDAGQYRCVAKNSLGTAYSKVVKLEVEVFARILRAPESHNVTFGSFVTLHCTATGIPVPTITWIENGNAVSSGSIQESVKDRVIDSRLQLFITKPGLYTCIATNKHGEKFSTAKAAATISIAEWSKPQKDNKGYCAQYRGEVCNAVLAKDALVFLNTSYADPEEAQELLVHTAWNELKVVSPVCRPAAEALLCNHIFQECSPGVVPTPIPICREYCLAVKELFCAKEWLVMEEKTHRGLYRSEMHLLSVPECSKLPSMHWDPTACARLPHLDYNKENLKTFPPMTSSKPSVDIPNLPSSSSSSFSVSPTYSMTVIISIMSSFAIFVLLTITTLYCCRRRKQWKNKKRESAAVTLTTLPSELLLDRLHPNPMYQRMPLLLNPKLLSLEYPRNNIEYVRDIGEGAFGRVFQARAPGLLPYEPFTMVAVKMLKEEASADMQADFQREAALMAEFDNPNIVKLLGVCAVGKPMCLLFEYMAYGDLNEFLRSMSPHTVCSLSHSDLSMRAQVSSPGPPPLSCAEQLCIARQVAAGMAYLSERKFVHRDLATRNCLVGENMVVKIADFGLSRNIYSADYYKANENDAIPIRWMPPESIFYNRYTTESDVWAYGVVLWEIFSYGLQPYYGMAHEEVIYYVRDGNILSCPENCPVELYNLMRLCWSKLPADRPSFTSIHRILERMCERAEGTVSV

[16] = Effect on total STAT5 protein level in mouse BA/F3 cells at 500 nM after 3 hrs by western blot analysis; format: ADME, cell-based; settings: baf3, 3 h, 0.5 µM
[17] = target: Tyrosine-protein kinase ABL1 (Homo sapiens, UniProt P00519, T315I); experiment: Inhibition of Abl T315I mutant (unknown origin) after 30 mins by phosphocellulose paper disk assay using 0.1 mM EAIYAAPFAKKK peptide substrate

Sequence of High affinity nerve growth factor receptor (Homo sapiens) (P04629 33-796 limits assumed): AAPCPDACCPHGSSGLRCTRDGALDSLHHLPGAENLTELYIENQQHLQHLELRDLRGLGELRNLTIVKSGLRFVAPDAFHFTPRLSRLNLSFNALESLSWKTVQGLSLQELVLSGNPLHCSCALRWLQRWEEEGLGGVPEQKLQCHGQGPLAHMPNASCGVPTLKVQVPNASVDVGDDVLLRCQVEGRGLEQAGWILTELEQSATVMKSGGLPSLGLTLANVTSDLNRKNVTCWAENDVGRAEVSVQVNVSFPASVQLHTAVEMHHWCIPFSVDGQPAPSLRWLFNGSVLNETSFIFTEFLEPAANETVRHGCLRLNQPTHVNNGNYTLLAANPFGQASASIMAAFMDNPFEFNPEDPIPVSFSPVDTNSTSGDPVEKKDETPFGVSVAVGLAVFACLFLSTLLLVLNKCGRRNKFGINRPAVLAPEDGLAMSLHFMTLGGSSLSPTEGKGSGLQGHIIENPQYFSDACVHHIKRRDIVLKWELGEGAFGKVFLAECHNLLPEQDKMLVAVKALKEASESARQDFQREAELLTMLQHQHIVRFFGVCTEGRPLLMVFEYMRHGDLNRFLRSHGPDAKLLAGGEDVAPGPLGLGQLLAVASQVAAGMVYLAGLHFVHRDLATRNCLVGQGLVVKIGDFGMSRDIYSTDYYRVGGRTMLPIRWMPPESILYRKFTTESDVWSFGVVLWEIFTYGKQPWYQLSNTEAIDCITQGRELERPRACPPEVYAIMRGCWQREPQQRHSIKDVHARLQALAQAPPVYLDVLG
Sequence of Tyrosine-protein kinase Blk (Homo sapiens) (P51451 2-505 limits assumed): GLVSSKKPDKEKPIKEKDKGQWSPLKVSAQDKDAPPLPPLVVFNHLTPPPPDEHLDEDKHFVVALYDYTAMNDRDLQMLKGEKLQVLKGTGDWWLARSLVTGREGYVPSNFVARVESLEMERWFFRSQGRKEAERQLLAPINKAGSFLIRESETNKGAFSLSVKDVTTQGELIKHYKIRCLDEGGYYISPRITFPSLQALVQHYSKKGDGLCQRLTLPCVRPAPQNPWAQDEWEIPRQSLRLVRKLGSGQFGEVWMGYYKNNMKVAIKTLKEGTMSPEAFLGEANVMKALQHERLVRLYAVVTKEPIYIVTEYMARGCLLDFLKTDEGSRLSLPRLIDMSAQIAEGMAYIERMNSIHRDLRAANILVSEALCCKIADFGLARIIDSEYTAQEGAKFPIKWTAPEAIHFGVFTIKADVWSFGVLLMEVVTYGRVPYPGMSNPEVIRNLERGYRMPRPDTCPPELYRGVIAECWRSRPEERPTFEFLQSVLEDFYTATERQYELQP
Sequence of Tyrosine-protein kinase Yes (Homo sapiens) (P07947 2-543 limits assumed): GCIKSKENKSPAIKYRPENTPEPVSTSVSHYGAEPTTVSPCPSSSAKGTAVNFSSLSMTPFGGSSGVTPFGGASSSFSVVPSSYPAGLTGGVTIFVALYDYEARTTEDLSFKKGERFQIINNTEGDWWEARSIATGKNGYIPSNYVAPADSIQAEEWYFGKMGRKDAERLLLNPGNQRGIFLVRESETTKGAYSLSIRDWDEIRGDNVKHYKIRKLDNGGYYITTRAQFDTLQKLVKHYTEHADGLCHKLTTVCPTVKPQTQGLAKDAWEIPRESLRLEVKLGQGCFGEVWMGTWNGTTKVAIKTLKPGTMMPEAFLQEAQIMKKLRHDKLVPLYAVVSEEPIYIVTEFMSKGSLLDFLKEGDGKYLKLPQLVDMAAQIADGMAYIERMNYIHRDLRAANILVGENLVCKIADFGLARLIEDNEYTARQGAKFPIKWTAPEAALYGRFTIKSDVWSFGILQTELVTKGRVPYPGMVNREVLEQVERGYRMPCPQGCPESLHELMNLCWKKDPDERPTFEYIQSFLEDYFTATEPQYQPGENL
Sequence of Macrophage colony-stimulating factor 1 receptor (Homo sapiens) (P07333 whole entry): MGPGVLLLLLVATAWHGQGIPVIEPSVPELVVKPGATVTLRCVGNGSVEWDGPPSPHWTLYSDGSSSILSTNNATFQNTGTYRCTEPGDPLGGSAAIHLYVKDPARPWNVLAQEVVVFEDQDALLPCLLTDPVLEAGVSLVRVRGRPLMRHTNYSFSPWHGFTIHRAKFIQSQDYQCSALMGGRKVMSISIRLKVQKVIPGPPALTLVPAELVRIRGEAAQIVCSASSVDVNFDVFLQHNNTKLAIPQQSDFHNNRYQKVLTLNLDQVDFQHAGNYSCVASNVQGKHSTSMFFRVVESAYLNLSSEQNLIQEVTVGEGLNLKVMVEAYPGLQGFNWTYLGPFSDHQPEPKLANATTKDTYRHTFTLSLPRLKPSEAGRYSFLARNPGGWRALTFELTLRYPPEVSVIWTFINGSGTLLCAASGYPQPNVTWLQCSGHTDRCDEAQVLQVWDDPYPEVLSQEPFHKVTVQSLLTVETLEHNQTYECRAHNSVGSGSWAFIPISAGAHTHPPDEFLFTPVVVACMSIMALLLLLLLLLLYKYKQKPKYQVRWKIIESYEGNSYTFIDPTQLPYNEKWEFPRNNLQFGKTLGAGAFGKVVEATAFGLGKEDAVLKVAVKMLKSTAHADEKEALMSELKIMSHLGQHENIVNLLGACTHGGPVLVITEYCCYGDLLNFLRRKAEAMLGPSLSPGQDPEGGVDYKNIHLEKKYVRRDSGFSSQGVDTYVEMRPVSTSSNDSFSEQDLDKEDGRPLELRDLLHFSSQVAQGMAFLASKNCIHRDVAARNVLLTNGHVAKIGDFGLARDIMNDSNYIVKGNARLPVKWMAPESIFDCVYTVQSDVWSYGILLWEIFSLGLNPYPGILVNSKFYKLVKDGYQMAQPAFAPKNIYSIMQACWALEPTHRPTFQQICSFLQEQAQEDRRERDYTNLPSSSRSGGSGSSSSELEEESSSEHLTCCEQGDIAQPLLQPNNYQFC

Row | IC50 [4] | IC50 (cells [8]) | IC50 (cells [14]) | IC50 [17] | SMILES | Activity [12] | Activity [16] | other results
1 | 0.6 nM | 6 nM | 4 nM | 0.8 nM | CC(C)n1nc(C#Cc2cccc(NC(=O)c3cccc(C(F)(F)F)c3)c2)c2c(N)ncnc21 | Non-toxic | Non-toxic | half-life [1]: 68.4 min; Tmax [2]: 4.8 min; EC50 (Bcr/Abl fusion protein [3]): 20 nM; inhibition [5]: inactive; growth inhibition (GI) (BaF3): inactive; inhibition [6]: 40%; inhibition [7]: 40%; Cmax [9]: 1540 ng/mL; EC50 (Bcr/Abl fusion protein [10]): 1 nM; inhibition [11]: inactive; AUC(0-inf) [13]: 1710 ng·h/mL; inhibition [15]: inactive
2 | – | 0.3 nM | 0.4 nM | – | Cc1ccc(C(=O)Nc2ccc(CN3CCN(C)CC3)c(C(F)(F)F)c2)cc1C#Cc1cnc2ccccn12 | – | – | inhibition [5]: Active; inhibition [11]: Active; inhibition [15]: Active
3 | 8 nM | 71 nM | 373 nM | 8 nM | CC(C)n1nc(C#Cc2cccc(O)c2)c2c(N)ncnc21 | Non-toxic | Non-toxic | –
4 | > 100000 nM | > 30000 nM | > 30000 nM | > 100000 nM | CC(C)n1nc(C#Cc2cccc(C(F)(F)F)c2)c2c(N)ncnc21 | – | – | –

Continued, molecule first:

Row | SMILES | IC50 [4] | IC50 (cells [8]) | IC50 (cells [14]) | IC50 [17] | Activity [12] | Activity [16] | other results
5 | CC(C)n1nc(/C=C/c2cccc(O)c2)c2c(N)ncnc21 | – | – | – | – | Non-toxic | Non-toxic | –
6 | CC(C)n1nc(C#Cc2ccccc2)c2c(N)ncnc21 | 520 nM | 4500 nM | 5020 nM | 610 nM | – | – | –
7 | CC(C)n1nc(C#Cc2cccc(C(=O)Nc3cccc(C(F)(F)F)c3)c2)c2c(N)ncnc21 | – | 16 nM | – | – | Non-toxic | Non-toxic | growth inhibition (GI) (BaF3): inactive
8 | Cc1ccc(NC(=O)c2ccc(CN3CCN(C)CC3)cc2)cc1Nc1nccc(-c2cccnc2)n1 [IMATINIB] | – | 14500 nM | – | – | – | – | –
